Reference: PMC5562790 (Scientific Reports, 2017)
“Also recorded” adds a separate entry of the source. Where two headings read alike, the source gives them in different places.

Tests used:
[1] = tested on: planktonic S. aureus (isolates from skin of patients with AD and ATCC 29213); type: cell-based, Staphylococcus aureus; conditions: summary over the tested S. aureus strains
Experimental: Measurement of the bacterial susceptibility was determined by using a modified version of the CBD method (MBEC^TM Biofilm Inoculator, Innovotech, Edmonton, Canada)[59] following the manufacturers protocol. Briefly, to establish biofilms in vitro using the CBD, 150 μl bacterial solution of 10^5 CFU/ml in 1.5% tryptic soy broth (TSB) was supplemented with 0.3% glucose and aliquoted into each well of the MBEC plate and thereafter incubated for 24 h in a rotary incubator at 37 °C and 180 rpm. This allowed the biofilm to form on the pegs. The pegs with established biofilms were then washed once in sterile PBS (200 μl/well). […]
The MIC values measured using the CBD are equivalent to MIC values obtained using the National Committee for Clinical Laboratory Standards (NCCLS) procedure. The MIC value, representing the concentration required to inhibit growth of planktonic bacteria, was determined from bacteria that were shed from the pegs when the lid of the CBD was placed in different concentrations of LL-37. […] MBECs were determined by analyzing the bacterial viability in the biofilm after 24 h of incubation at 37 °C either by reading the turbidity at 600 nm in a 96-well plate reader (Victor[3] 1420 multilabel counter, Perkin-Elmer) or by obtaining bacterial plate counts. The recorded MIC and MBEC values represent a typical result of three independent experiments.

[2] = target: T1, S. aureus staphopain B (SspB) (Staphylococcus aureus, UniProt P0C1S6); test: Proteolytic degradation of LL-37 by staphopain B, SDS-PAGE and MS; type: in vitro ADME; conditions: LL-37 3 μg with staphopain B 0.6 μg in 30 μl, 3 h, 37 °C; SDS-PAGE (10-20% Tricine gel), MALDI-MS
T1 construct: purchased Sigma-Aldrich
T1 sequence (P0C1S6 220-393): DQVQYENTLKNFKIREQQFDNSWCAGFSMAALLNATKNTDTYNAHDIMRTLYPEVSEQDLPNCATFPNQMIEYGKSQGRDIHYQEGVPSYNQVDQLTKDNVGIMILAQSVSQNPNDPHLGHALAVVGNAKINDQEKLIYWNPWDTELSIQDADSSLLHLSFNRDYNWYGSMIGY
Experimental: (§1) Proteolytic degradation of LL-37 and SDS-PAGE analysis (See Supplementary Methods S1).
(§2) Matrix-assisted laser desorption ionization mass spectrometry (MALDI-MS) was used for the identification of trypsin generated peptides of LL-37. A MALDI matrix solution consisting of 5 mg/ml hydroxycinnamic acid in 50% acetonitrile, 0.1% (v/v) phosphoric acid[67] was mixed with the staphopain-generated peptides. The matrix solution contained two peptide standards [des-arg-bradykinin (m/z 904.468) and ACTH 18–39 (m/z 2465.199)] that were used for internal mass calibration in every analyte/matrix position. […]
LL-37 (3 µg), was incubated with S. aureus staphopain B (0.6 µg) (Sigma-Aldrich, St. Louis, MO, USA) in a total volume of 30 µl for 3 h at 37 ° C. […] The materials were subsequently analysed on Novex®10-20% Tricine Gel (Life technologies, Carlsbad, CA, USA) under reducing conditions. […]
The NF-κB/AP-1 reporter cell line THP1-XBlue™ -CD14, derived from the human monocytic THP-1 cell line, (InvivoGen, San Diego, CA, USA) was cultured according to the manufacturer’s protocol. […] NF-κB/AP-1 activation was assessed by using QUANTI-Blue™ assay according to the instructions supplied by the manufacturer. Secreted embryonic alkaline phosphatase (SEAP) was produced by the cell line upon stimulation and assessed by a SEAP detection reagent in cell supernatants. Absorbance at 600 nm was then detected. […]

[3] = target: T2, S. aureus staphopain A (ScpA) (Staphylococcus aureus, UniProt P81297); type: in vitro ADME; conditions: gel-electrophoresis (10-20% Tricine gel); MS detected cleavage of minor fragments
T2 construct: purchased Preparatis (Krakow, Poland)
T2 sequence (P81297 215-388): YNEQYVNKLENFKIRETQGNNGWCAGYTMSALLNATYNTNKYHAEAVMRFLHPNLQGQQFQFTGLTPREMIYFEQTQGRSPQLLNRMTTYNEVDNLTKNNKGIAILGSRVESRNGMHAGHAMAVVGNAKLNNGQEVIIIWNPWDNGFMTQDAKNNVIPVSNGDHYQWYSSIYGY
Experimental: as §1
as §2, with “position. MALDI-MS and MS/MS analyses of the samples were performed on a 4700 Proteomics Analyzer MALDI-TOF/TOF™ mass spectrometer (Applied Biosystems, Framingham, MA). Database searching was carried out using Mascot (Matrix Science) with Swissprot as the database and with a peptide mass tolerance of 50 ppm and a fragment mass tolerance of 0.2 Da.” for “position.”
labeled LL-37) and green (S. aureus cells) seen separately, and yellow representing co-existence of bacterial cells and the TAMRA-labeled LL-37 peptide. Binding of TAMRA labeled LL-37 to the S. aureus cells were present throughout the biofilm. […]
Supplementary Fig. S5. […] LL-37 was incubated with and without S. aureus ScpA and analyzed using SDS-PAGE (Novex®10-20% Tricine Gel) (a), and by mass spectrometry (b). […]

[4] = published peptide, cited from earlier work
Text: Table 2 A selection of published peptide sequences derived from LL-37 with immune-modulating actions, and examples of their biological effects. | column: Biological activity

[5] = tested on: staphopain B (SspB); test: S. aureus staphopain B (0.6 µg) (Sigma-Aldrich) in a total volume of 30 µl; conditions: 37 °C, up to 3 h

## CC[C@H](C)[C@H](NC(=O)[C@H](CCCCN)NC(=O)[C@H](CCC(=O)O)NC(=O)[C@H](CCCCN)NC(=O)[C@H](CO)NC(=O)[C@H](CCCCN)NC(=O)[C@H](CCCNC(=N)N)NC(=O)[C@H](Cc1ccccc1)NC(=O)[C@H](Cc1ccccc1)NC(=O)[C@H](CC(=O)O)NC(=O)CNC(=O)[C@H](CC(C)C)NC(=O)[C@@H](N)CC(C)C)C(=O)NCC(=O)N[C@@H](CCCCN)C(=O)N[C@@H](CCC(=O)O)C(=O)N[C@@H](Cc1ccccc1)C(=O)N[C@@H](CCCCN)C(=O)N[C@@H](CCCNC(=N)N)C(=O)N[C@H](C(=O)N[C@H](C(=O)N[C@@H](CCC(N)=O)C(=O)N[C@@H](CCCNC(=N)N)C(=O)N[C@H](C(=O)N[C@@H](CCCCN)C(=O)N[C@@H](CC(=O)O)C(=O)N[C@@H](Cc1ccccc1)C(=O)N[C@@H](CC(C)C)C(=O)N[C@@H](CCCNC(=N)N)C(=O)N[C@@H](CC(N)=O)C(=O)N[C@@H](CC(C)C)C(=O)N[C@H](C(=O)N1CCC[C@H]1C(=O)N[C@@H](CCCNC(=N)N)C(=O)N[C@H](C(=O)N[C@@H](CCC(=O)O)C(=O)N[C@@H](CO)C(=O)O)[C@@H](C)O)C(C)C)[C@@H](C)CC)C(C)C)[C@@H](C)CC [LL-37]
[1]
  MIC values obtained for planktonic cells: 10 to 20 µM
[2]
  degradation by SspB: degraded into fragments of lower molecular weight
[3]
  degradation by ScpA: did not reveal any obvious major cleavage

## GDFFRKSK EKIGKEFKRI VQRIKDFLRN LVPRTES [F106, published fragment (F) derived from LL-37]
[4]; ref [29]
  Biological activity: AM, IM^2

## GKEFKRI VQRIKDFLRN LVPR (GKEFKRIVQRIKDFLRNLVPR)
[4]; ref [24]
  Biological activity: AM, IM^1c,2

## IGKEFKRI VQRIKDFLRN L [IG-19]
[4]; ref [27], [28]
  Biological activity: IM^1b,2,5

## IGKEFKRI VQRIKDFLRN LVPRTES [IG-25]
[4]; ref [27]
  Biological activity: IM^1b,3

## KSK EKIGKEFKRI VQRIKDFLRN LVPRTES [KS-30]
[4]; ref [23], [25], [26]
  Biological activity: AM, IM^3,4

## LLGDFFRKSKEKIGKEFKRIV
[4]; ref [24]
  Biological activity: AM, IM^2

## LLGDFFRKSKEKIGKEFKRIVQRIK [LL-25]
[4]; ref [27]
  Biological activity: IM^1b

## LLGDFFRKSKEKIGKEFKRIVQRIKDFLRNL [LL-31]
[4]; ref [27]
  Biological activity: IM^1b,3

## LLGDFFRKSKEKIGKEFKRIVQRIKDFLRNLVPRTES
[5]; S. aureus
  cleaved bond: E11-K12; also recorded: E16-F17; also recorded: D26-F27; also recorded: L28-R29
[5]; Staphylococcus aureus
  fragment found: LLG16, minor

## RKSK EKIGKEFKRI VQRIKDFLRN L [RK-25]
[4]; ref [27]
  Biological activity: IM^1b,3

## RKSK EKIGKEFKRI VQRIKDFLRN LVPRTES [F110, published fragment (F) derived from LL-37]
[4]; ref [29]
  Biological activity: AM, IM^1c,2

## RKSK EKIGKEFKRI VQRIKDFLRN LVPRTES [RK-31]
[4]; ref [23], [25]
  Biological activity: AM, IM^3
